In PMC9120478 (Nature Communications, 2022):
Positions count from the first letter of the chain named. Values joined by “and” are separate entries in the source; they are usually repeats but may differ in a detail not shown here. Identical values can stand only once.

Tests used:
TRPV3-Y564A = target: T1, TRPV3-Y564A (Mus musculus, UniProt Q8K424, Y564A); experiment: Fura-2 ratiometric Ca2+ uptake, inhibition of 2-APB-evoked response; type: cell-based
T1 construct: expressed in transfected cells; host or cells: HEK 293 S GnTI- cells (baculovirus transduction)
T1 sequence (Q8K424 1-791 Y564A): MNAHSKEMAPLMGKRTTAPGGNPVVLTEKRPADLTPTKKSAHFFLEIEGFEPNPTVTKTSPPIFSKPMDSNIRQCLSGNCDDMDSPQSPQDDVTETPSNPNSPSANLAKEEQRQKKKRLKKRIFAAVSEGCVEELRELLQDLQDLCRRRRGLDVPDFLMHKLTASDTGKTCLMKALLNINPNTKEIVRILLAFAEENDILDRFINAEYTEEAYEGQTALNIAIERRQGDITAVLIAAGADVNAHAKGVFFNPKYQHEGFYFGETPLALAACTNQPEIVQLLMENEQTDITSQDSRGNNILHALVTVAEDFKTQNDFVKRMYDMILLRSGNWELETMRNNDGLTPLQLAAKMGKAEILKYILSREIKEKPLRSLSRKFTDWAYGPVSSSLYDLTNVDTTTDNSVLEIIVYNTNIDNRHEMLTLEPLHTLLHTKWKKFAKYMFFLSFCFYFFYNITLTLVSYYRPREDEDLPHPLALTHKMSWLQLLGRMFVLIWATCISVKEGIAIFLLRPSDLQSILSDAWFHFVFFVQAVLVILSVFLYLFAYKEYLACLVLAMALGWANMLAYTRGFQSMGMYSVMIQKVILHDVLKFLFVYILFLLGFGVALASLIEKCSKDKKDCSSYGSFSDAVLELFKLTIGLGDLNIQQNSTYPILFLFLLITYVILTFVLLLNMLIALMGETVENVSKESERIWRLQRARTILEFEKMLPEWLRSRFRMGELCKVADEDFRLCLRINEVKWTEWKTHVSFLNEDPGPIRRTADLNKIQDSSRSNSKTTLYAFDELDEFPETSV
Procedure: The Y564A mutation increases affinity to the TRPV3 agonist 2-APB[42] and decreases affinity to the competitive antagonist osthole.
GFP-free C-terminally strep-tagged wild-type TRPV3, TRPV3-Y564A, TRPV3-Y594A, TRPV3-F633A, TRPV3-I663W, and TRPV3-F666A were expressed in HEK 293 S GnTI^− cells as previously described[41],[42],[53]. In short, 48 h after transduction, 1-ml aliquots of cell suspension were collected by centrifugation at 550 g for 5 min using an Eppendorf 5424 centrifuge. The cells were resuspended in the pre-warmed modified HEPES-buffered saline (HBS) containing 118 mM NaCl, 4.8 mM KCl, 1 mM MgCl2, 5 mM D-glucose, and 10 mM HEPES pH 7.4 and 5 μg/ml Fura-2 AM (Thermo Fisher Scientific) and incubated for 45 min at 37 °C. The Fura-2-loaded cells were then centrifuged for 5 min at 550 g, resuspended in the pre-warmed, modified HBS and incubated again for 30 min at 37 °C in the dark. […] The washed cell pellets were kept on ice in the dark before taking an aliquot for fluorescence measurements. […] Fluorescence measurements were conducted using a QuantaMaster 40 spectrofluorometer (Photon Technology International) at room temperature in a quartz cuvette under constant stirring. […] Changes in intracellular Ca^2+ were measured by taking the ratio of fluorescence emitted at 510 nm at the excitation wavelength of 340 nm and 380 nm. […]

[1] = test system: TRPV3 I674A gate residue mutant; conditions: cited from earlier work
TRPV3 [2] = conditions: cited from earlier work
wild-type mouse TRPV3 = target: T2, wild-type mouse TRPV3 (Mus musculus, UniProt Q8K424); experiment: Fura-2 ratiometric Ca2+ uptake, inhibition of 2-APB-evoked response; type: cell-based
T2 construct: expressed in transfected cells; host or cells: HEK 293 S GnTI- cells (baculovirus transduction)
T2 sequence (Q8K424 1-791): T1 sequence (Q8K424 1-791 Y564A) with A564Y
Procedure: (§1) GFP-free C-terminally strep-tagged wild-type TRPV3, TRPV3-Y564A, TRPV3-Y594A, TRPV3-F633A, TRPV3-I663W, and TRPV3-F666A were expressed in HEK 293 S GnTI^− cells as previously described[41],[42],[53]. In short, 48 h after transduction, 1-ml aliquots of cell suspension were collected by centrifugation at 550 g for 5 min using an Eppendorf 5424 centrifuge. The cells were resuspended in the pre-warmed modified HEPES-buffered saline (HBS) containing 118 mM NaCl, 4.8 mM KCl, 1 mM MgCl2, 5 mM D-glucose, and 10 mM HEPES pH 7.4 and 5 μg/ml Fura-2 AM (Thermo Fisher Scientific) and incubated for 45 min at 37 °C. The Fura-2-loaded cells were then centrifuged for 5 min at 550 g, resuspended in the pre-warmed, modified HBS and incubated again for 30 min at 37 °C in the dark. The cells were subsequently pelleted and washed twice in the modified HBS. The washed cell pellets were kept on ice in the dark before taking an aliquot for fluorescence measurements. […] We used the lower CaCl2 concentration than before[42],[28] (2.5 mM) to minimize non-specific effects, which often appeared as a drift in the Fura-2 signal at high Ca^2+ concentration, presumably due to cell death as a result of calcium overload. Fluorescence measurements were conducted using a QuantaMaster 40 spectrofluorometer (Photon Technology International) at room temperature in a quartz cuvette under constant stirring. After 60 s since the beginning, the recording was paused and 2-APB was added. After the addition of 2-APB, the recording was continued for the additional 140 s. Changes in intracellular Ca^2+ were measured by taking the ratio of fluorescence emitted at 510 nm at the excitation wavelength of 340 nm and 380 nm. […] The data were processed using Origin 9.0 (OriginLab) software.

TRPV3 [3] = target: T3, TRPV3 (Mus musculus, UniProt Q8K424); experiment: 2-APB concentration dependence of TRPV3 activation at two dyclonine concentrations (Schild plot); type: cell-based; conditions: for TRPV3 activation by 2-APB in the presence of dyclonine (Schild plot source data): listed as Dyc
T3 construct: expressed in transfected cells; host or cells: HEK 293 S GnTI- cells (baculovirus transduction)
T3 sequence (Q8K424 1-791): T1 sequence (Q8K424 1-791 Y564A) with A564Y
Procedure: as §1

Q: Which results are given for `CCCCOc1ccc(C(=O)CCN2CCCCC2)cc1` [dyclonine, 1-(4-butoxyphenyl)-3-piperidin-1-ylpropan-1-one]?
A: IC50 (TRPV3-Y564A; 200 µM 2-APB, n = 4, negative control mutant): 31.5 ± 1 µM; nHill of inhibition curve, Y564A (TRPV3-Y564A; logistic fit, n = 4): 2.33 ± 0.11; inhibitory potency at I674A mutant [1]: reduced inhibitory potency; temperature-dependence of inhibition (TRPV3 [2]; TRPV3 activation by an infrared laser): lack of temperature-dependence; effect on TRPV3 currents evoked by heat (TRPV3 [2]): inhibits; voltage-dependence of TRPV3 inhibition (TRPV3 [2]): no voltage-dependence; nHill of inhibition curve (wild-type mouse TRPV3; logistic fit, 200 µM 2-APB, n = 7): 1.61 ± 0.27; IC50 (wild-type mouse TRPV3; read-out: IC50, inhibition of TRPV3-mediated Ca2+ uptake): 29.8 ± 5.3 µM; TRPV3 activation by 2-APB in the presence of dyclonine (Schild plot source data) (TRPV3 [3]; 60 mM Dyc, 2-APB Conc 20, single experiments): 0.167 and 0.154 and 0.168; TRPV3 activation by 2-APB in the presence of dyclonine (Schild plot source data) (TRPV3 [3]; 60 mM Dyc, 2-APB Conc 40, single experiments): 0.144 and 0.213 and 0.179; TRPV3 activation by 2-APB in the presence of dyclonine (Schild plot source data) (TRPV3 [3]; 60 mM Dyc, 2-APB Conc 80, single experiments): 0.244 and 0.241 and 0.22; TRPV3 activation by 2-APB in the presence of dyclonine (Schild plot source data) (TRPV3 [3]; 60 mM Dyc, 2-APB Conc 160, single experiments): 0.294 and 0.283; TRPV3 activation by 2-APB in the presence of dyclonine (Schild plot source data) (TRPV3 [3]; 2-APB Conc 10, single experiments): 0.194 and 0.175 and 0.157; TRPV3 activation by 2-APB in the presence of dyclonine (Schild plot source data) (TRPV3 [3]; 2-APB Conc 20, single experiments): 0.323 and 0.34 and 0.318; TRPV3 activation by 2-APB in the presence of dyclonine (Schild plot source data) (TRPV3 [3]; 2-APB Conc 40, single experiments): 0.542 and 0.419 and 0.487; TRPV3 activation by 2-APB in the presence of dyclonine (Schild plot source data) (TRPV3 [3]; 2-APB Conc 80, single experiments): 0.804 and 0.786 and 0.853; competition between 2-APB and dyclonine (Schild plots) (TRPV3 [3]; 10 and 60 μM dyclonine): lack of obvious competition
